Test results published in PMC11645656, “MRGPRX4 mediates phospho-drug associated pruritus in a humanized mouse model” (Science translational medicine, 2024).
Where “and” joins values, the source holds several entries; their conditions need not be identical. Identical values can stand only once. Like-named read-outs stand apart in the source and are kept apart here.

What was measured:
MRGPRX4 S83L (L83) = MRGPRX4 S83L (L83) (Homo sapiens, UniProt Q96LA9); assay: Calcium mobilization assay (FLIPR), S83L MRGPRX4 transiently expressed in HEK293T cells; assay type: cell-based; design: expressed in transfected cells; host or cells: HEK293T, transient; conditions: Fig. 4E, unit not in the head, taken from Concentration (M) of the sheet and pEC50 [M] of Fig. 4E, read-out: EC50s (each well represents individual experiment)
Chain of MRGPRX4 S83L (L83) (Q96LA9 whole entry, stated change not applied): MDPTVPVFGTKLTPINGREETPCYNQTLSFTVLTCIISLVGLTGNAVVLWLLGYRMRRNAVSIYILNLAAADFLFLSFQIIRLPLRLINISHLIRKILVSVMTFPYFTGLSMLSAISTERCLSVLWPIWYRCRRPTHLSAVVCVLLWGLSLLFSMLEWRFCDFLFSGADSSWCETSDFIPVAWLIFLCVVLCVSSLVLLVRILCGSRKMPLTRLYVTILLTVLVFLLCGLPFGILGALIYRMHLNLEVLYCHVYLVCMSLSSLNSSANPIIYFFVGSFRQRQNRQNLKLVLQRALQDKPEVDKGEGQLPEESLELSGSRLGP
From the text: (§1) Fig. 4. […] Hydrogen bond is shown as cyan dashed lines. […] Data are from three independent experiments, performed in triplicate. (E) pEC50 plots of various agonists toward S83- and L83-MRGPRX4 through calcium mobilization assay. […] Each data point represents an independent experiment, performed in triplicate. The extra sum-of-square F test was used to examine the difference in EC50 values. One-sided t-test was used for nateglinide. *p< 0.05, **p< 0.01 and ***p< 0.001. ns = no statistical significance. Both (D) and (E) are reported as the mean ± SEM. N.D.= no detectable response ≤ 100 μM.
(§2) HEK293 cells and MRGPRX4 stably expressed HEK293 cells were seeded in 100 μl culture media on 96-well plates at a density of 40,000 cells per well and incubated overnight. The next day, the media were replaced with a dye-loading solution from the FLIPR Calcium 5 assay kit (Molecular Devices), diluted in Hank's Balanced Salt Solution (HBSS) with 20 mM HEPES, pH 7.4. After 1 h of incubation at 37°C, cells were allowed to recover for 10 min in the dark at room temperature prior to performing intracellular calcium mobilization assay in a Flexstation-3 instrument with SoftMax®Pro 7.1 software (Molecular Devices). Serial concentrations of tested drugs were prepared in HBSS/HEPES solution at 3X concentration. […] Compounds were tested in triplicates and the signals were averaged. Responses were determined by subtracting the minimum signal (at the baseline before adding the drug) from the maximum signal (obtained after drug stimulation). Four-parameter logistic (4PL) curve fit was used to plot the dose-response curves. […] Both dose-response curve fitting and EC50s calculation are computed with GraphPad Prism software (version: 6.o or above).
(§3) To generate murine Mrgprs expressing cells, HEK293T cells (ATCC) were seeded on poly-D-lysine coated 96 well plate at 25,000 cells per well one day prior to transfection. HEK293T cells were transiently co-transfected with the mammalian expression plasmids carrying cDNA encoding the murine Mrgpr genes and plasmid inserted with cDNA encoding murine α-subunit of the heterotrimeric G15 protein (Gα15) in triplicates using Lipofectamine LTX reagents (Thermo Scientific). To generate WT, S83L, and alanine mutant MRGPRX4-expressing cells, HEK293T cells were seeded on poly-D-lysine coated 384 well plate at 12,000 cells per well one day prior to transfection. Mammalian expression plasmids pLX304 (vector from Addgene) carrying different MRGPRX4 coding sequences were transiently transfected into HEK293T cells in triplicates with Lipofectamine LTX reagents (Thermo Scientific). Intracellular calcium mobilization assays were performed after one day of transfection. Murine Mrgprs tested include Mrgpra1, Mrgpra2a, Mrgpra2b, Mrgpra3, Mrgpra4, Mrgpra6, Mrgpra9, Mrgpra10, Mrgpra11, Mrgpra12, Mrgpra14, Mrgprb5, Mrgprb6, Mrgprb10, Mrgprb11, and Mrgprc11. WT and mutant MRGPRX4 constructs tested include WT, S83L, R82A, R86A, R95A, W158A, Y250A, and Y254A.

MRGPRX4 WT (S83) = MRGPRX4 WT (S83) (Homo sapiens, UniProt Q96LA9, L83S); assay: Calcium mobilization assay (FLIPR), WT (S83) MRGPRX4 transiently expressed in HEK293T cells; assay type: cell-based; design: expressed in transfected cells; host or cells: HEK293T, transient; conditions: for fig. S8 response (normalized), concentration-response: WT, single replicate; for Potency at S83- vs L83-MRGPRX4: calcium mobilization, compared with S83L (A17)
Chain of MRGPRX4 WT (S83) (Q96LA9 whole entry L83S): as the sequence (Q96LA9 whole entry, stated change not applied) above, with L83S counted along it
From the text: as §1, §2, §3

Compound	EC50 (MRGPRX4 S83L (L83))	EC50 (MRGPRX4 WT (S83); WT (S83), Fig. 4E, unit not in the head, taken from Concentration (M) of the sheet and pEC50 [M] of Fig. 4E, read-out: EC50s (each well represents individual experiment))	fig. S8 response (normalized), concentration-response (MRGPRX4 WT (S83); 188.2 pM)	fig. S8 response (normalized), concentration-response (MRGPRX4 WT (S83); 564.5 pM)	fig. S8 response (normalized), concentration-response (MRGPRX4 WT (S83); 1.69351e-9 M)	fig. S8 response (normalized), concentration-response (MRGPRX4 WT (S83); 5.08053e-9 M)	fig. S8 response (normalized), concentration-response (MRGPRX4 WT (S83); 1.52416e-8 M)	fig. S8 response (normalized), concentration-response (MRGPRX4 WT (S83); 4.57247e-8 M)	fig. S8 response (normalized), concentration-response (MRGPRX4 WT (S83); 1.37174e-7 M)	fig. S8 response (normalized), concentration-response (MRGPRX4 WT (S83); 4.11523e-7 M)	fig. S8 response (normalized), concentration-response (MRGPRX4 WT (S83); 1.23457e-6 M)	fig. S8 response (normalized), concentration-response (MRGPRX4 WT (S83); 3.7037e-6 M)	fig. S8 response (normalized), concentration-response (MRGPRX4 WT (S83); 1.11111e-5 M)	fig. S8 response (normalized), concentration-response (MRGPRX4 WT (S83); 3.33333e-5 M)	fig. S8 response (normalized), concentration-response (MRGPRX4 WT (S83); 0.0001 M)	Potency at S83- vs L83-MRGPRX4 (MRGPRX4 WT (S83))	EC50 (MRGPRX4 WT (S83); S83-MRGPRX4, Fig. 4E, read-out: pEC50 (converted))
C[C@]12CC3CC(C(=O)N[C@H](Cc4ccccc4)C(=O)O)(C1)C[C@@](C)(C3)C2 [MS47134]	2.33e-07 M and 2.26e-07 M and 1.83e-07 M	1e-05 M and 9.11e-06 M and 5.25e-06 M	11.5885 and 10.879 and 5.439 and 5.904 and 6.997 and 13.1195 and 4.054	1.419 and 2.1285 and 14.19 and 0.656 and -3.499 and 16.1808 and 2.837 and 3.081	13.717 and 21.0485 and 8.041 and 7.872 and 6.341 and 14.6502 and 17.1869 and 20.1054	10.406 and 7.095 and 9.933 and 10.7143 and 1.312 and 11.3703 and 16.214 and 17.6733	16.555 and 11.5885 and 5.439 and 11.8076 and 1.749 and 16.6181 and 8.6745 and 13.0523	20.1025 and 15.609 and 18.447 and 12.2449 and 9.84 and 19.0233 and 11.1066	23.177 and 26.015 and 20.1025 and 11.3703 and 12.9009 and 13.1195 and 23.7536	18.92 and 25.069 and 17.2645 and 15.0875 and 10.7143 and 17.93 and 19.3758 and 16.214	24.3595 and 15.8455 and 8.041 and 11.5889 and 9.621 and 14.4315 and 14.7548 and 20.5918	23.8865 and 16.3185 and 10.879 and 20.3353 and 21.8659 and 19.0233 and 22.7807 and 20.3486	45.6445 and 43.516 and 42.3335 and 43.5131 and 43.9504 and 44.6064 and 52.9388 and 53.9116	61.017 and 69.0579 and 61.4432 and 62.3178 and 54.6647 and 48.561 and 41.5079	60.544 and 75.4434 and 62.6724 and 56.414 and 74.7813 and 68.4402 and 77.9895 and 57.3166	the L83 allele, as previously reported, exhibited greater potency and efficacy	
CC(C)[C@H]1CC[C@H](C(=O)N[C@H](Cc2ccccc2)C(=O)O)CC1 [Nateglinide]	1.04e-06 M and 7.61e-07 M and 9.29e-07 M						11.8843			16.3409	15.4027					the L83 allele, as previously reported, exhibited greater potency and efficacy	> 0.0001 M
